Measured values: the CheMixHub viscosity set

Test: xn = mol fraction of the nth substance listed

CCCCOCCO + OCCOCCO
101 kPa
Settings | viscosity [mPa·s]
293.15 K, x1 = 0.0527 | 34.87
293.15 K, x1 = 0.1006 | 31.53
293.15 K, x1 = 0.1978 | 25.56
293.15 K, x1 = 0.2838 | 21.2
293.15 K, x1 = 0.3994 | 16.51
293.15 K, x1 = 0.4508 | 14.78
293.15 K, x1 = 0.5016 | 13.23
293.15 K, x1 = 0.5487 | 11.92
293.15 K, x1 = 0.5792 | 11.12
293.15 K, x1 = 0.6735 | 8.899
293.15 K, x1 = 0.7975 | 6.435
293.15 K, x1 = 0.8946 | 4.816
293.15 K, x1 = 0.9556 | 3.894
298.15 K, x1 = 0.0486 | 27.11
298.15 K, x1 = 0.0983 | 24.47
298.15 K, x1 = 0.2015 | 19.76
298.15 K, x1 = 0.2993 | 16.07
298.15 K, x1 = 0.3999 | 12.89
298.15 K, x1 = 0.4504 | 11.5
298.15 K, x1 = 0.4981 | 10.3
298.15 K, x1 = 0.5447 | 9.244
298.15 K, x1 = 0.5844 | 8.422
298.15 K, x1 = 0.6781 | 6.756
298.15 K, x1 = 0.7974 | 5.096
298.15 K, x1 = 0.8989 | 3.946
298.15 K, x1 = 0.9494 | 3.392
303.15 K, x1 = 0.0465 | 19.89
303.15 K, x1 = 0.0998 | 17.79
303.15 K, x1 = 0.2008 | 14.36
303.15 K, x1 = 0.2979 | 11.66
303.15 K, x1 = 0.4002 | 9.382
303.15 K, x1 = 0.4487 | 8.472
303.15 K, x1 = 0.491 | 7.751
303.15 K, x1 = 0.5513 | 6.832
303.15 K, x1 = 0.6 | 6.167
303.15 K, x1 = 0.7032 | 4.949
303.15 K, x1 = 0.8025 | 3.971
303.15 K, x1 = 0.8829 | 3.29
303.15 K, x1 = 0.9536 | 2.765

CCCCOCCO + OCCOCCOCCO
101 kPa
Settings | viscosity [mPa·s]
293.15 K, x1 = 0.048 | 36.14
293.15 K, x1 = 0.111 | 30.89
293.15 K, x1 = 0.1958 | 25.06
293.15 K, x1 = 0.3023 | 19.11
293.15 K, x1 = 0.4053 | 14.62
293.15 K, x1 = 0.4492 | 12.94
293.15 K, x1 = 0.4988 | 11.29
293.15 K, x1 = 0.5502 | 9.833
293.15 K, x1 = 0.5922 | 8.791
293.15 K, x1 = 0.6915 | 6.755
293.15 K, x1 = 0.7959 | 5.249
293.15 K, x1 = 0.8902 | 4.37
293.15 K, x1 = 0.9457 | 3.879
298.15 K, x1 = 0.0536 | 30.5
298.15 K, x1 = 0.1049 | 27.17
298.15 K, x1 = 0.2064 | 21.51
298.15 K, x1 = 0.2953 | 17.55
298.15 K, x1 = 0.3982 | 13.71
298.15 K, x1 = 0.4518 | 12.06
298.15 K, x1 = 0.5018 | 10.7
298.15 K, x1 = 0.5494 | 9.463
298.15 K, x1 = 0.5998 | 8.336
298.15 K, x1 = 0.6966 | 6.451
298.15 K, x1 = 0.7997 | 4.971
298.15 K, x1 = 0.8916 | 3.873
298.15 K, x1 = 0.9411 | 3.369
303.15 K, x1 = 0.0501 | 26.39
303.15 K, x1 = 0.1015 | 23.75
303.15 K, x1 = 0.197 | 19.42
303.15 K, x1 = 0.3006 | 15.59
303.15 K, x1 = 0.4006 | 12.58
303.15 K, x1 = 0.4531 | 11.14
303.15 K, x1 = 0.4972 | 10.12
303.15 K, x1 = 0.5469 | 8.986
303.15 K, x1 = 0.6012 | 7.888
303.15 K, x1 = 0.6893 | 6.343
303.15 K, x1 = 0.803 | 4.661
303.15 K, x1 = 0.89 | 3.59
303.15 K, x1 = 0.9416 | 3.02

CCOC(=O)CCl + OCc1ccccc1
viscosity [mPa·s], 101.3 kPa
Settings | x1 = 0.1072 | x1 = 0.2035 | x1 = 0.2998 | x1 = 0.395 | x1 = 0.5 | x1 = 0.5984 | x1 = 0.6981 | x1 = 0.7972 | x1 = 0.8941
298.15 K | 4.078 | 3.295 | 2.729 | 2.285 | 1.923 | 1.669 | 1.459 | 1.326 | 1.188
303.15 K | 3.567 | 2.887 | 2.428 | 2.036 | 1.747 | 1.516 | 1.334 | 1.209 | 1.092
308.15 K | 3.058 | 2.48 | 2.127 | 1.815 | 1.572 | 1.365 | 1.209 | 1.093 | 0.997

[Cl-].[Cl-].[Cl-].[Cl-].[Ti+4] + [Cl-].[Cl-].[Cl-].[Cl-].[Sn+4]
viscosity [mPa·s], 101 kPa
Settings | x2 = 0.2 | x2 = 0.4 | x2 = 0.6 | x2 = 0.8
293.15 K | 0.847 | 0.87 | 0.895 | 0.922
313.15 K | 0.702 | 0.703 | 0.705 | 0.709

CC(C)CC(C)C + c1ccccc1
101 kPa, x1 = 0.5
Settings | viscosity [mPa·s]
298 K | 0.3825
318 K | 0.314

CCCCOCCO + c1ccccc1
viscosity [mPa·s], 101 kPa
Settings | 298.15 K | 308.15 K
x1 = 0.0553 | 0.648 | 0.562
x1 = 0.1496 | 0.736 | 0.631
x1 = 0.2488 | 0.845 | 0.717
x1 = 0.3504 | 0.978 | 0.821
x1 = 0.4555 | 1.144 | 0.949
x1 = 0.4995 | 1.223 | 1.011
x1 = 0.5504 | 1.323 | 1.088
x1 = 0.6482 | 1.543 | 1.258
x1 = 0.7535 | 1.83 | 1.479
x1 = 0.8483 | 2.143 | 1.718
x1 = 0.9556 | 2.575 | 2.048

O=C(OCc1ccccc1)c1ccccc1 + c1ccccc1
viscosity [mPa·s], 101 kPa
Settings | x1 = 0.11 | x1 = 0.1886 | x1 = 0.27 | x1 = 0.4124 | x1 = 0.52 | x1 = 0.5911 | x1 = 0.7827 | x1 = 0.8954
298.15 K | 0.9057 | 1.196 | 1.514 | 2.301 | 3.073 | 3.584 | 5.478 | 6.883
313.15 K | 0.7205 | – | 1.161 | – | 2.18 | – | – | –

c1ccc2c(c1)CCCC2 + c1ccccc1
298.15 K, 101 kPa
Settings | viscosity [mPa·s]
x1 = 0.1394 | 0.719
x1 = 0.3016 | 0.8758
x1 = 0.493 | 1.098
x1 = 0.7222 | 1.445
